Data published in US20240246970A1, “SUBSTITUTED HETERO-BICYCLOCOMPOUNDS AS SUBTYPE SELECTIVE NICOTINIC ACETYLCHOLINE RECEPTOR INHIBITORS” (THE BOARD OF TRUSTEES OF THE UNIVERSITY OF ILLINOIS, priority 2021, published 2024).
Like-named read-outs stand apart in the source and are kept apart here.

Target: T1, rat α3β4 nAChR (Rattus norvegicus, UniProt P04757+P12392)
T1 construct: expressed in transfected cells; host or cells: HEK293 (rα3β4-HEK293, kept under G-416 selection)
Assay: Calcium influx assay (dual agonist/antagonist, FLIPR calcium 6) in HEK293 cells expressing rat α3β4 nAChR
Format: cell-based
Procedure: FIGS. 2A-2B show dual agonist/antagonist fluorescence assays. […] For agonist assays, 12 concentrations of test compounds were added to the cells ([…], final concentrations).
FIGS. 3A-3B show concentration response curves. […] Each concentration-response point represents a minimum of two technical replicates and three biological replicates. EC50, Emax, and IC50 values were calculated from corresponding concentration-response curves fitted using the logistical curve in OriginPro.
Assay Description. HEK293 cells expressing the rat α3β4 nAChR were loaded with an intracellular, calcium-sensitive dye. Activation of the receptor results in an increase in the intracellular calcium concentration and a corresponding increase in fluorescent signal. Multiple concentrations of test compounds were first applied to the rα3β4-HEK293 cells and monitored for their ability to activate α3β4 nAChRs.
Cell culture. […] For fluorescence assays, the cells were seeded into 96-well flat bottom, black wall plates, at a density of approximately 50,000 cells per well in 75 μL of media.
Cells seeded at this density grew into a confluent monolayer in 24 h. Ca^2+ fluorescence assays. Ca^2+ uptake was determined using a FLIPR calcium 6 assay.
For dye loading, the fluorescent dye was reconstituted in 10 mL assay buffer according to the manufacturer's protocol. 75 μL of the dye solution was added to each well and the plate was incubated at 37° C. for 1 h. Plates were then transferred to a FlexStation 3 maintained at 37° C.
Dual Agonist/AntagonistAssay. […] For agonist assays, 12 concentrations of test compounds were added to the cells ([…], final concentrations).
Once again, the fluorescence measured for 28 seconds prior to addition and 90 seconds afterwards.
Data reduction. […] Each concentration-response point represents a minimum of two technical replicates and three biological replicates. EC50, Emax, and IC50 values were calculated from corresponding concentration-response curves (see FIGS. 3A-3B) fitted using the logistical curve in OriginPro.

[1] = Example 5, α3β4 nAChR, read-out: IC50

T1 sequence (P04757 26-499): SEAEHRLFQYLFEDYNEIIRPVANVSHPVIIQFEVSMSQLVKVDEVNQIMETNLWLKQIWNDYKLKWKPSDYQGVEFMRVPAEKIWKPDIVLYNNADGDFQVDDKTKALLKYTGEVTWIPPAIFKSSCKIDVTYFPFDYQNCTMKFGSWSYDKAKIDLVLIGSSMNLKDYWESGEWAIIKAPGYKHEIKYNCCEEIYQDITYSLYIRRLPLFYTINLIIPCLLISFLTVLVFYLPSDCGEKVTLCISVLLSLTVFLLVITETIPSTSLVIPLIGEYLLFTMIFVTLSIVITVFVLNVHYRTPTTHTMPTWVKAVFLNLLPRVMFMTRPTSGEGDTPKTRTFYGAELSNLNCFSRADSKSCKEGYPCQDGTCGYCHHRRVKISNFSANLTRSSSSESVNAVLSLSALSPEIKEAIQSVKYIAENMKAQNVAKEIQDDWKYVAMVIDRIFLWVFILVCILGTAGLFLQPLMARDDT
T1 sequence (P12392 21-495): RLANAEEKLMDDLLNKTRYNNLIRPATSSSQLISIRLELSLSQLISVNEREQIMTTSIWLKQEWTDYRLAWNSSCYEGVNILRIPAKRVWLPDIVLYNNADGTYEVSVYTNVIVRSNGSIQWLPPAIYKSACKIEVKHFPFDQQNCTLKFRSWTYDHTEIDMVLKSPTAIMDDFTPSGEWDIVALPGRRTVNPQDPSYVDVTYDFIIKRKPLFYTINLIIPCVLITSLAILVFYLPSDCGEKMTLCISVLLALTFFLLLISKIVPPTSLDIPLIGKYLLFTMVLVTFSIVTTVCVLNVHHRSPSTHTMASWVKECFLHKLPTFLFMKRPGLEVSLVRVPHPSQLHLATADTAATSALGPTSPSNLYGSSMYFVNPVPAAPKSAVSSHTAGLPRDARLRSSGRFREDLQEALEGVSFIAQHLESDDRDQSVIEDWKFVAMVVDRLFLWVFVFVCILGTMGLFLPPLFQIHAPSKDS

SMILES	IC50 [1]	also measured
CC1=CCC2CC1C(c1ccnc3ccccc13)N(C)C2(C)C (stereo not shown)	1.4 µM	–
CCN1C(c2ccc(F)c(C(F)(F)F)c2)C2CC(CC=C2C)C1(C)C (stereo not shown)	0.76 µM	–
CC1=CCC2CC1C(c1ccc(F)c(C(F)(F)F)c1)OC2(C)C (stereo not shown) [drawing 51]	–	IC50 (IC50, Example 5 text, α3β4 nAChR): > 100 µM
CC1=CCC2CC1C(c1ccc(F)c(C(F)(F)F)c1)OC2(C)C (stereo not shown) [drawing 115]	–	IC50 (α3β4 nAChR IC50, Table 4, R1 and R2 methyl, R3 NH unless otherwise indicated): > 200 µM
